Assay results from patent US6642254B2, “Heterocyclic compounds and their therapeutic use” (Darwin Discovery, Ltd., priority 1998, dated 2003).
In brackets after ≈: the same amount, converted by molar mass. Where two headings read alike, the source gives them in different places.

Experiments:
[1] = Pharmacokinetic profile in cannulated rats (oral dosing); assay type: in vivo; details: rat, oral dose 3 mg/kg, plasma
Procedure: The pharmacokinetic profile of the compounds of the invention is determined in rats cannulated in the right carotid artery for blood collection. For iv dosing, the compound is prepared in a suitable formulation, for example 10% v/v DMSO, 50% v/v PEG 400 in water, and dosing is carried out by cannulation of the left jugular vein. Samples are collected at 5 min, 0.5, 1, 2, 4, 6 and 8 hours post-dosing. For oral dosing, the compound is prepared in a suitable formulation such as 0.4% w/v methylcellulose in water Samples are collected at 0.5, 1, 2, 4, 6 and 8 hours post-dosing. In some cases, samples are also collected at 12 hours post-dosing. Plasma is obtained by centrifugation of the each blood sample and drug concentration is then determined using standard methods, such as liquid chromatography-mass spectrometry following protein precipitation.
Results are tabulated below, and are also shown in the accompanying drawing. The drawing is a graph of PK data following oral dosing in the rat; PC (plasma concentration; ng/ml) is plotted against t (time; hours). ▪ represents the compound of Example 8, and · the free base. The superiority of the novel compound is evident.

[2] = Solubility in water at pH 7; assay type: physicochemical
Procedure: The solubility of the compound of Example 8, in water at pH 7, was 0.2 mg/ml. The solubility of the corresponding free base, under the same conditions, was 0.002 mg/ml.

Compound: COc1ccc(C(=O)Nc2c(Cl)c[n+]([O-])cc2Cl)c2ccc(C(F)(F)F)nc12 [Example 8, 8-Methoxy-2-trifluoromethylquinoline-5-carboxylic Acid (3,5-dichloro-1-oxypyridin-4-yl)amide]
- AUC0-last (po) [1]: 30169 ng·h/mL
- Cmax (po) [1]: 3054 ng/mL
- t1/2 (po) [1]: 20 h
- solubility [2]: 200 µg/mL (≈ 463 µM)

Compound: COc1ccc(C(=O)Nc2c(Cl)cncc2Cl)c2ccc(C(F)(F)F)nc12 [Free base, 8-Methoxy-2-trifluoromethylquinoline-5-carboxylic acid (3,5-dichloropyridin-4-yl)amide]
- Cmax (po) [1]: 1008 ng/mL
- AUC(0-t) ([1]; read-out: AUC0-last (po)): 6860 ng·h/mL
- half-life ([1]; read-out: t1/2 (po) (converted)): 4.5 h
- solubility ([2]; aqueous buffer, read-out: solubility): 2 µg/mL (≈ 4.81 µM)
